Measurements from patent US20080255174A1, “Hydroalcoholic Extract Of Erythrina Mulungu, Pharmaceutical Compositions And Processes For Producing These Substances” (priority 2004, published 2008).

Experiments:
[1] = system: Swiss mice; assay: elevated T maze test (inhibitory avoidance and escape from the open arms); assay type: in vivo; set-up: Escape: unit not given here; conditions: for Escape / Inhibitory avoidances E1 / Inhibitory avoidances E2 / Inhibitory avoidances E3 / Inhibitory avoidances E4 / Inhibitory avoidances LB (basal latency): acute, average ± EPM; for Escape: departure time from open arm; for Inhibitory avoidances E1 / Inhibitory avoidances E2 / Inhibitory avoidances E3 / Inhibitory avoidances E4 / Inhibitory avoidances LB (basal latency): latency, maximum 300 seconds
Method: (§1) Swiss mice weighing 25-35 g from the central animal laboratory of the Sao Paulo State University (UNESP/Araraquara) were used. The animals were housed in groups of 10-12 animals, in polypropylene cages with wood shavings on the floor, with food and water available ad […]]. The animal laboratory was maintained under constant temperature 22±1° C., the lighting was controlled in 12-hour cycles from 7:00 am to 7:00 pm and the humidity was kept at between 50-60%. The pharmacological evaluation was performed with extract, standard drug and vehicle. Accordingly, lyophilized hydroalcoholic extract (50, 100, 200 and 400 mg/kg) was used, in addition to F2 (3, 6, 10, 17 and 30 mg/kg) and the alkaloids erythrartine, erythravine and 11-OH-erythravine (3 and 10 mg/kg), administered via oral intake by gavage. The standard drug used was Diazepam (DZP) in a dose of 2 mg/kg (via intraperitoneal, i.p). All solutions were prepared on the day of the experiment with sodium […] 0.9% and sonicated for 15 minutes and the diazepam in a solution of sodium […] 0.9% and Tween-80. The experiments were carried out between 11:00 am and 5:00 pm, and the experiment apparatus and procedures are described ahead. The elevated T maze is made with transparent glass walls and wooden floor and consists of a closed arm (30×5×15 cm) perpendicularly linked to two open arms (30×5×0.25 cm), raised at 38.5 cm above the floor by a wooden support. In this test, five consecutive measures of inhibitory avoidance were performed (basal latency, avoidances 1, 2, 3 and 4) and one measure of escape from the open arms, with intervals of 30 seconds between each attempt. In the avoidance measures, the animals were placed in the distal section of the closed arm and the exit latency of this arm, on all four paws, towards the open arm was timed. In the escape measure, the animals were placed in the extremity of the right-hand open arm and the departure time from this arm was measured. The animals' maximum length of stay in the arms of the maze during these measures was 300 seconds. The apparatus was cleaned with ethanol 20% after testing each animal. In order to avoid false positives or negatives, immediately after testing in the elevated T maze, the animals were submitted to the locomotive activity test in the arena. The apparatus consists of a white polypropylene box with a rectangular base (40×48 cm), surrounded by 30 cm high walls. The floor is subdivided into 30 squares (8×8 cm). In this test, the animals were placed in the center of the box and their activity was video recorded for five minutes, for subsequent analysis of the number of crossings of the quadrant areas and number of stretch-attend postures (WALSH and CUMMINS, 1976).
(§2) All the results from the animal models were initially submitted to the Levene homogeneity test. The heterogeneous results were converted into a logarithmic scale and later analyzed statistically. The results obtained from the elevated T maze were submitted to a two-way analysis of variance (ANOVA), with treatment being an independent factor and attempts being a dependent factor. […] The results obtained with the arena were submitted to a one-way ANOVA followed by the Duncan post hoc test. Amounts p≦0.05 were considered to be significant results.

[2] = system: Swiss mice; assay: locomotive activity test in the arena; assay type: in vivo; conditions: for Crossings / Stretch-attend postures: acute, number in five minutes, average ± EPM
Method: as §1, §2

[3] = system: serotonergic 3 receptor (5-HT3); conditions: in vitro test (ELSELÈ et al., 1993); cited from earlier work

## COc1cc2c(cc1OC)[C@]13C[C@@H](O)C=CC1=CCN3C[C@H]2O [11-OH-erythravine, 11-hydroxy-erythravine]
[1]; 3 mg/kg oral by gavage
  Escape: 21.5 ± 3.7
  Inhibitory avoidances E1: 41.8 ± 14.2
  Inhibitory avoidances E2: 96.0 ± 34.4
  Inhibitory avoidances E3: 132.3 ± 39.7
  Inhibitory avoidances E4: 194.4 ± 39.5
  Inhibitory avoidances LB (basal latency): 30.7 ± 5.8
[1]; 10 mg/kg oral by gavage
  Escape: 26.8 ± 4.8
  Inhibitory avoidances E1: 30.0 ± 6.1
  Inhibitory avoidances E2: 54.0 ± 21.1
  Inhibitory avoidances E3: 66.6 ± 30.3
  Inhibitory avoidances E4: 94.8 ± 31.7
  Inhibitory avoidances LB (basal latency): 22.6 ± 3.5
[1]; acute treatment, 3 and 10 mg/kg oral, result in words
  performance in the inhibitory avoidance task: impaired the performance of the animals in the inhibitory avoidance task
[2]; 3 mg/kg oral by gavage
  Crossings: 158.5 ± 7.12
  Stretch-attend postures: 27.7 ± 3.20
[2]; 10 mg/kg oral by gavage
  Crossings: 126.5 ± 12.71
  Stretch-attend postures: 22.4 ± 3.50
[2]; 3 and 10 mg/kg oral, one-way ANOVA, result in words
  locomotive activity (number of crossings and stretch-attend postures): none of the doses of 11-OH-erythravine used altered the locomotive activity

## CO[C@H]1CC=C2CCN3CCC4=C(CC(=O)OC4)[C@]23C1 [DHBE, dihydro-β-erythroidine]
[3]
  action at 5-HT3 receptor: serotonergic 3 antagonist receptor (5-HT3)

## CN1C(=O)CN=C(c2ccccc2)c2cc(Cl)ccc21 [DZP, Diazepam, reference compound]
[1]; DZP 2 mg/kg i.p.
  Escape: 19.0 ± 3.2
  Inhibitory avoidances E1: 15.3 ± 3.8
  Inhibitory avoidances E2: 12.25 ± 1.6
  Inhibitory avoidances E3: 22.3 ± 7.7
  Inhibitory avoidances E4: 24.2 ± 7.3
  Inhibitory avoidances LB (basal latency): 24.6 ± 4.1
[2]; DZP 2 mg/kg i.p.
  Crossings: 154.6 ± 19.48
  Stretch-attend postures: 19.13 ± 2.03
